Experiments:
[1] = test system: HepG2 cells; assay: Biosynthesis of cholesterol and CoQ by HepG2 cells: incorporation of [3H]mevalonate, lipid extraction, HPLC with on-line detection of radioactivity; assay type: cell-based, human; details: for Coenzyme Q10: labeling of CoQ
Experimental: (§1) Human hepatoblastoma (HepG2) cells (cell line derived from a human liver cancer that contains primarily CoQ with a decaprenyl side-chain available in ATCC (Cat. No. HB-8065), obtained from LGC Prochem, UK) were cultured in 10 ml DMEM medium (Invitrogen) containing 1 g glucose per 100 ml, 10% fetal bovine serum, penicillin (100 units per ml) and streptomycin ([…]). When 70% confluency was reached, the medium was changed and the compounds to be investigated added in 50-100 µl dimethylsulfoxide to give a final concentration of 2 µM or in the case of tocotrienols 5 µM. Twenty-four hours later, 0.5 mCi [^3H]mevalonate (3.25 Ci/mmol) was added and incubation continued for an additional 8 hours. When the substrate was [^3H]lanosterol (0.28 Ci/mmol) the amount added was 5 µCi. Finally, the cells were harvested by trypsinisation and stored at -20° C for later analysis.
(§2) Lipids were extracted from cells with chloroform:methanol:water (1:1:0.3), at 37°C for 1 hr with magnetic stirring (Ericsson, J., Runquist, M., Thelin, A., Andersson, M., Chojnacki, T., and Dallner, G. (1993) J Biol Chem 268(2), 832-838). The extracts thus obtained were adjusted to achieve a final chloroform:methanol:water ratio of 3:2:1 and complete phase separation then accomplished by centrifugation. The lower chloroform phase was removed and evaporated to dryness under a flow of nitrogen and the residue subsequently re-dissolved in chloroform. These solutions were placed onto a silica column (50 mg/1.5 ml; Extract-Clean, Alltech, Deerfield, IL) and thereafter eluted with 6 ml chloroform. After evaporation of the solvents, the neutral lipids were dissolved in chloroform:methanol (2:1).
(§3) For analysis of cholesterol, cholesterol metabolites, squalene, and CoQ, the samples were subjected to reversed-phase HPLC using a Supelcosil LC-18 column (3 µm, 4.0 x 75 mm) equipped with an LC-18 Supelguard (Supelco) column (Ericsson, J., Thelin, A., Chojnacki, T., and Dallner, G. (1992) J Biol Chem 267(27), 19730-19735). For separation, a stepwise gradient involving methanol:water (9:1) in pump system A and methanol:2-propanol:hexane (2:1:1) in pump system B was employed at a flow rate of 1.1 ml/min. The gradient began at 15% solvent B, with increases to 47% after 8 min, 67% after 16 min and 100% after 24 min. The lipids in the eluent were monitored at 210 nm and 275 nm with a UV detector and labeling of radioactive products was measured with on-line detector of radioactivity. Ergosterol and CoQ6 were used as internal standards.

[2] = test system: HepG2 cells; assay: as above; assay type: cell-based; details: Homo sapiens, [3H]mevalonate incorporation into cholesterol, read-out: inhibition (reduction) of cholesterol synthesis
[3] = test system: HepG2 cells; assay: Biosynthesis of cholesterol from [3H]lanosterol in the presence of inhibitors; assay type: cell-based, human; details: for Cholesterol: 2 µM tetraepoxysolanesol or ketoconazole or 0.2 µM RO 48-8071, 24 hrs, then [3H]lanosterol 8 hrs, means ± SE of 3 experiments; for cholesterol synthesis with [3H]lanosterol as precursor: result in words
Experimental: as §1, §2, §3

[4] = 2 µM, 24 hours, then [3H]mevalonate for 8 hours, means ± SD (n = 4)
[5] = 2 µM, 24 hours, then [3H]mevalonate for 8 hours, labeling of cholesterol, means ± SD (n = 4)
[6] = 2 µM tetraepoxysolanesol or ketoconazole or 0.2 µM RO 48-8071, 24 hrs, then [3H]mevalonate 8 hrs, means ± SE
[7] = 2 µM tetraepoxysolanesol or ketoconazole or 0.2 µM RO 48-8071, 24 hrs, then [3H]mevalonate 8 hrs, means ± SE, n.d. = not detectable

Row | Compound | Coenzyme Q10 [1, 4] | Cholesterol [1, 5] | other results
1 | Solanesol | 138 ± 14 % of control | 3 ± 1 % of control | 
2 | Vitamin K2 | 127 ± 18 % of control | 67 ± 7 % of control | inhibition (reduction) of cholesterol synthesis ([1]; 2 µM, [3H]mevalonate incorporation into cholesterol): 33%; elevation (stimulation) of CoQ synthesis ([1]; 2 µM, [3H]mevalonate labeling of CoQ): 27%
3 | CC(=O)OC/C=C(\C)CC/C=C(\C)CC/C=C(\C)CCC=C(C)C [Geranylgeranyl-acetate] | 109 ± 12 % of control | 102 ± 4 % of control | 
4 | CC(C)=CCC/C(C)=C/CC/C(C)=C/CO [Farnesol] | 100 ± 4 % of control | 101 ± 3 % of control | 
5 | CC(C)=CCC/C(C)=C/CC/C(C)=C/CC/C(C)=C/CO [Geranylgeraniol] | 107 ± 11 % of control | 102 ± 5 % of control | 
6 | CC(C)=CCC/C(C)=C/CC/C(C)=C/CC/C=C(\C)CC/C=C(\C)CCC=C(C)C [Squalene] | 111 ± 8 % of control | 30 ± 5 % of control | inhibition at 2 µM [2]: 70%
7 | Farnesyl-acetate | 105 ± 8 % of control | 103 ± 4 % of control | 
8 | CC(=O)N1CCN(c2ccc(OCC3COC(Cn4ccnc4)(c4ccc(Cl)cc4Cl)O3)cc2)CC1 (centres unmarked) [Ketoconazole, reference compound] |  |  | CQ10 [1, 6]: 2.4 ± 0.3 cpm/pg protein; Cholesterol [1, 7]: 25 ± 4 cpm/pg protein; Lanosterol [1, 7]: 58 ± 16 cpm/pg protein; Cholesterol [3]: 1.3 ± 0.3 cpm/pg protein; cholesterol synthesis with [3H]lanosterol as precursor [3]: inhibited
9 | C=CCN(C)CCCCCCOc1ccc(C(=O)c2ccc(Br)cc2)c(F)c1 [RO 48-8071, reference compound] |  |  | CQ10 [1, 6]: 2.1 ± 0.2 cpm/pg protein; 2,3-Oxido squalene [1, 7]: 91 ± 10 cpm/pg protein; 2,3:22,23-Dioxidosqualene [1, 7]: 108 ± 22 cpm/pg protein; Cholesterol [3]: 10.1 ± 1.2 cpm/pg protein; cholesterol synthesis with [3H]lanosterol as precursor [3]: neither tetraepoxysolanesol or RO 48-8071 inhibited
10 | Solanesyl-acetate | 145 ± 18 % of control | 4 ± 2 % of control | 
